Data on 14 compounds can be found in PubChem BioAssay (NCI).

SMILES strings stand for the structures.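 These data come from cells grown in 96-well plates and exposed to compound for 48 hours at five concentrations. GI50 = concentration required for 50% inhibition of growth. TGI: total growth inhibition.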

Some test systems named below: ACHN renal; HOP-92 NSCLC; MALME-3M melanoma; MOLT-4 leukemia; NCI-H460 lung; SNB-19 CNS; SW-620 colon; TK-10 renal; U251 CNS.
Holding throughout (experiment): growth of human tumour cells (NCI), 48 h

Regarding `COC(=O)C12C3C4C1C1C2C3C41C(=O)N(C(C)C)C(C)C` (configuration not stated), the TGI with ACHN renal, with HOP-92 NSCLC, in the assay on MALME-3M melanoma, in the assay with MOLT-4 leukemia, in the assay with NCI-H460 lung and with SNB-19 CNS was greater than 100 µM in each case. For the same compound, the TGI in the assay on SW-620 colon, in the assay with TK-10 renal and with U251 CNS was greater than 100 µM throughout.

On to `[N-]=[N+]=Nc1c(Br)c(=O)[nH]c(=O)n1COCCO`, for which the TGI in the assay with ACHN renal, in the assay with HOP-92 NSCLC, in the assay with MALME-3M melanoma, in the assay on MOLT-4 leukemia, in the assay on NCI-H460 lung and with SNB-19 CNS was greater than 100 µM throughout. Further, the TGI in the assay on SW-620 colon, with TK-10 renal and in the assay with U251 CNS was greater than 100 µM each time.

For the compound `O=C1C2=C(c3ccccc31)C(c1ccc(F)cc1)N1C(=O)CCSC1=N2` (configuration not stated), the TGI in the assay on ACHN renal is greater than 100 µM; with HOP-92 NSCLC, 97.7 µM; with MALME-3M melanoma, greater than 100 µM; with MOLT-4 leukemia, greater than 100 µM; in the assay with NCI-H460 lung, greater than 100 µM; in the assay with SNB-19 CNS, greater than 100 µM. For the same compound, the TGI in the assay with SW-620 colon, in the assay on TK-10 renal and in the assay with U251 CNS was greater than 100 µM throughout.

As for `COC(=O)/C(=N/O)C(C(=O)OC)C(=O)C(=O)Nc1c(Cl)cc(C)cc1S(=O)(=O)O` (configuration not stated), the TGI with ACHN renal, in the assay on HOP-92 NSCLC, with MALME-3M melanoma, with MOLT-4 leukemia, in the assay on NCI-H460 lung and with SNB-19 CNS was greater than 100 µM in each case. In addition, the TGI in the assay with TK-10 renal and with U251 CNS was greater than 100 µM in each case.

As for `O=C(O)Cc1cc(=O)[nH]c2c1C(=O)CCC2`, the TGI in the assay on ACHN renal, with HOP-92 NSCLC, in the assay on MALME-3M melanoma, in the assay with MOLT-4 leukemia, with NCI-H460 lung and in the assay on SNB-19 CNS was greater than 100 µM throughout. For the same compound, the TGI in the assay with SW-620 colon, in the assay on TK-10 renal and in the assay on U251 CNS was greater than 100 µM throughout.

For `O=C1C2=C(c3ccccc31)C(c1ccc(Cl)cc1)NC(=S)N2` (configuration not stated), the TGI with ACHN renal was greater than 100 µM; in the assay on HOP-92 NSCLC, 41.2 µM; in the assay with MALME-3M melanoma, 79.4 µM; with MOLT-4 leukemia, 41.3 µM; in the assay on NCI-H460 lung, greater than 100 µM; in the assay with SNB-19 CNS it was 96 µM. The TGI in the assay with SW-620 colon was 40.5 µM; in the assay with TK-10 renal, 48.9 µM; with U251 CNS it was 33.6 µM.

Consider `COc1cc(/C=C\c2cc(OC)c(OC)c(OC)c2)cc(NS(=O)(=O)c2cccc(Cl)c2)c1OC`, for which the GI50 in the assay with ACHN renal is 109 nM; in the assay with HOP-92 NSCLC, 71.5 nM; with MALME-3M melanoma, 20 µM; in the assay with MOLT-4 leukemia, 45.6 nM; with NCI-H460 lung, 36.2 nM; in the assay with SNB-19 CNS it was 214 nM. Moreover, the GI50 was 43.8 nM with SW-620 colon, 2010 nM in the assay on TK-10 renal and 48.2 nM in the assay with U251 CNS. Also, the TGI in the assay on ACHN renal, with HOP-92 NSCLC, with MALME-3M melanoma, with MOLT-4 leukemia, in the assay on NCI-H460 lung and in the assay on SNB-19 CNS was greater than 100 µM each time. In addition, the TGI in the assay on SW-620 colon, in the assay on TK-10 renal and in the assay on U251 CNS was greater than 100 µM in each case.

For the compound `Cc1cc(Cl)ccc1NC(=O)CCCC(=O)C(C(=O)c1ccccc1)c1ccccc1` (configuration not stated), the TGI with ACHN renal, in the assay with HOP-92 NSCLC, with MALME-3M melanoma, in the assay on MOLT-4 leukemia, in the assay on NCI-H460 lung and in the assay with U251 CNS was greater than 100 µM throughout.

In the case of `CC(=O)O[C@H]1C(=O)[C@@]2(C)C(C(OC(=O)c3ccccc3)[C@]3(O)CC(OC(=O)C(O)C(NC(=O)c4ccccc4)c4ccc(C)cc4)C(C)=C1C3(C)C)[C@]1(OC(C)=O)CO[C@@H]1C[C@@H]2O` (some centres not stated), the TGI with ACHN renal is greater than 25 µM; in the assay with HOP-92 NSCLC it was 11.3 µM; with MALME-3M melanoma, 10.4 µM; in the assay on MOLT-4 leukemia it was 5.82 µM; in the assay on NCI-H460 lung, greater than 25 µM; in the assay on SNB-19 CNS, 0.523 µM. For the same compound, the TGI is 0.0256 µM with SW-620 colon, greater than 25 µM in the assay on TK-10 renal and 0.264 µM in the assay with U251 CNS.

Consider `COc1cc2c3c(c1OC)Oc1ccc(cc1)CC1c4c(cc(OC)c(OC)c4Oc4ccc(cc4)CC3N(C)CC2)CCN1C` (configuration not stated), for which the TGI was greater than 100 µM in the assay with ACHN renal; greater than 100 µM with HOP-92 NSCLC; 34.5 µM with MALME-3M melanoma; 63.2 µM in the assay with MOLT-4 leukemia; 37.1 µM with NCI-H460 lung; greater than 100 µM with SNB-19 CNS. For the same compound, the values for the TGI in the assay with SW-620 colon, with TK-10 renal and in the assay on U251 CNS were 30.4 µM, 46.1 µM and 30.8 µM, respectively.

In the case of `CCOC(=O)NC(=O)c1cn(C2OC(CO)C(O)C2O)c(=O)[nH]c1=O` (configuration not stated), the TGI in the assay with ACHN renal, in the assay with MALME-3M melanoma, in the assay with MOLT-4 leukemia, in the assay with NCI-H460 lung, in the assay on SNB-19 CNS and with SW-620 colon was greater than 100 µM throughout. In the assay with U251 CNS, the TGI was greater than 100 µM.

As to `COC(=O)c1nn(C(=N)c2ccc(Cl)cc2)c2c1CCCCC2`, the TGI in the assay on ACHN renal, with HOP-92 NSCLC, with MALME-3M melanoma, with MOLT-4 leukemia, with NCI-H460 lung and in the assay on SNB-19 CNS was greater than 100 µM each time. In addition, the TGI in the assay on SW-620 colon, in the assay on TK-10 renal and with U251 CNS was greater than 100 µM in each case.

In the case of `CCCCCCCCCCCCCCC(O)C1CCC(C(O)CCC(O)CCCCCC(O)CC2=CC(C)OC2=O)O1` (configuration not stated), the TGI worked out at 11.7 µM with HOP-92 NSCLC; 13.6 µM with MALME-3M melanoma; 3.14 µM in the assay with MOLT-4 leukemia; 11.1 µM in the assay with SNB-19 CNS; 13.9 µM in the assay with SW-620 colon; 17.9 µM in the assay with TK-10 renal. This compound also returned a TGI in the assay with U251 CNS of 20.9 µM.

For the compound `N[C@H](C(=O)O)[C@@H](Cl)CC(=O)O`, the TGI in the assay with ACHN renal, with HOP-92 NSCLC, with MALME-3M melanoma, with MOLT-4 leukemia, in the assay on NCI-H460 lung and in the assay with SNB-19 CNS was greater than 100 µM in each case. For the same compound, the TGI in the assay on SW-620 colon, in the assay with TK-10 renal and with U251 CNS was greater than 100 µM throughout.
